Measured values: PMC9551036, “A selective and orally bioavailable VHL-recruiting PROTAC achieves SMARCA2 degradation in vivo” (Nature Communications, 2022)
Several values for one entry are separate records, joined by “and”; a condition that tells them apart may be missing. Equal values may be shown once. Read-outs that look alike come from different tables or passages of the source.

How the values were obtained:
SMARCA2^BD = target: T1, SMARCA2^BD (Homo sapiens, UniProt P51531); experiment: SPR binding to immobilised SMARCA2 bromodomain
T1 construct: P51531-2, residues 1373-1493 with additional N-terminal SM residues; GST (TEV site) (N, cleaved yes); made in house; host or cells: Escherichia coli BL21(DE3)
T1 sequence (P51531 1373-1493 isoform P51531-2): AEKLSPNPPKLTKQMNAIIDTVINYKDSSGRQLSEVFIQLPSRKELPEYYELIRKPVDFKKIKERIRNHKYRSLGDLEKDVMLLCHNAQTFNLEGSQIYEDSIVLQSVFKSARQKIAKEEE
Experimental: SMARCA4^BD was provided by the Structural Genomics Consortium (SGC), Toronto[32] and SMARCA2^BD and PRM1^BD5 were synthesised by GeneArt then subcloned into pDEST15 vectors (Invitrogen). The VCB complex was expressed and purified as described previously, with the modification that 0.3 mM IPTG was used for induction of expression. […] Both were stored in 20 mM 4-(2-hydroxyethyl)−1-piperazineethanesulfonic acid (HEPES), 150 mM sodium chloride and 1 mM tris(2-carboxyethyl)phosphine (TCEP) pH 7.5. SMARCA2^BD, SMARCA4^BD and PBRM1^BD5 were expressed in Escherichia coli BL21(DE3) as N-terminal GST fusion proteins with a TEV protease cleavage site. Expression and purification of these proteins has been described previously[32],[33]. Starter cultures were grown overnight at 37 °C in 10 mL of Luria-Bertani (LB) medium with ampicillin (100 μg/mL). The starter cultures were diluted (1:100) in Terrific Broth (TB) medium with ampicillin (100 μg/mL) and grown in a shaking incubator at 37 °C to an optical density (OD600) ~1 before the temperature was lowered for induction (to 23 °C for SMARCA2^BD or 18 °C for SMARCA4^BD and PRRM1^BD5). […] Cells were harvested by centrifugation and stored at −80 °C prior to purification. […] The Lysis buffers were as follows: for SMARCA2^BD: 50 mM HEPES, 500 mM sodium chloride, 5% glycerol, 5 mM dithiothreitol (DTT); for SMARCA4^BD: 25 mM HEPES, 0.3 M sodium chloride, 5% glycerol, 10 mM DTT, pH 7.5; for PBRM1^BD5: 25 mM HEPES, 300 mM sodium chloride, 5% glycerol, 10 mM DTT, pH 7.8; in each case supplemented with complete protease inhibitors (Roche). Affinity purification was performed using Glutathione Sepharose 4B (GE Healthcare) in batch mode or on-column. […] For SMARCA2^BD, prior to TEV protease cleavage the eluted GST-tagged BD was first dialysed into desalting buffer (20 mM HEPES, 250 mM sodium chloride, pH 7.0 + 0.5% glycerol). Where TEV cleavage was performed in solution, a second affinity (GST-trap) column purification step was carried out to remove the GST-tag and uncleaved GST-tagged protein. Proteins were further purified by SEC (HiLoad Superdex-75, 16/600) (GE Healthcare) and stored in Storage buffer (for SMARCA2^BD: 20 mM HEPES, 150 mM sodium chloride, pH 7.5; for SMARCA4^BD: 10 mM HEPES, 0.5 M NaCl, 5% glycerol, pH 7.5; for PBRM1^BD5: 20 mM HEPES, 300 mM NaCl, 5 mM DTT, pH 7.8). For AlphaScreen assays, eluted GST-tagged BDs were purified directly by SEC in the respective storage buffers without TEV cleavage. All chromatography purification steps were performed either at room temperature or 4 °C using an ÄKTA FPLC purification system (GE Healthcare) or a plastic Econo-Pac column (Bio-Rad).
(§1) SPR data were acquired on Biacore 8K or T200 instruments (Cytiva). Target proteins were immobilised at 25 °C on CM5 chips by amine coupling (EDC/NHS, Cytiva) in HBS-P+ running buffer (pH 7.4), containing 2 mM TCEP. […] The reference surface was subsequently deactivated using 1 M ethanolamine. […] Biotinylated VCB was prepared as previously described[27]: in brief, the complex was mixed 1:1 with EZ-Link NHS–PEG4–biotin (Thermo Scientific) and incubated at room temperature for 1 h. Unreacted NHS-biotin was removed using a PD-10 desalting column (Cytiva) into 20 mM HEPES, pH 7.5, 150 mM sodium chloride and 1 mM DTT. The reference surface was generated by deactivating the EDC/NHS-treated surface with 1 M ethanolamine. All interaction experiments were done at 6 °C in running buffer (20 mM TRIS, pH 8.3, 150 mM potassium chloride, 2 mM magnesium chloride, 2 mM TCEP, 0.005% TWEEN 20, 1% dimethyl sulfoxide). For ternary complex measurements, a sensor chip surface with VCB immobilised was used (preparation as described above). Experiments were run in dual-inject mode with 10 µM SMARCA present during the injection and dissociation phase. Sensorgrams from reference surfaces and blank injections were subtracted from the raw data prior to data analysis using Biacore Insight software.

[1] = tested on: VCB: PROTAC: SMARCA4^BD ternary complex; experiment: TR-FRET ternary complex affinity and cooperativity, SMARCA4; type: binding, human; conditions: ratio TR-FRET EC50 / TR-FRET EC50 +VCB measured in the same run, SMARCA4BD
[2] = target: VCB: PROTAC: SMARCA2^BD ternary complex (Homo sapiens, UniProt P40337+P51531); experiment: SPR ternary complex measurement, VCB immobilised, 10 µM SMARCA2^BD present; type: binding; parameters: P51531-2, residues 1373-1493 with additional N-terminal SM residues; His6 (TEV site) (N, cleaved yes); GST (TEV site) (N, cleaved yes); made in house; host or cells: SMARCA2^BD: Escherichia coli BL21(DE3); conditions: for Kd: SPR; for alpha: cooperativity, SMARCA2, ratio of KD values measured in the same run
Sequence of VCB: PROTAC: SMARCA2^BD ternary complex (P40337 54-213): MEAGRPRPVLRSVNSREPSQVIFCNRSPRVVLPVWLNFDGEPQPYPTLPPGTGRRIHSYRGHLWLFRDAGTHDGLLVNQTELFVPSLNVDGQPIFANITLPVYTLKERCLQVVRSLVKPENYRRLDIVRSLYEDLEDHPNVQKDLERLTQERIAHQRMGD
Sequence of VCB: PROTAC: SMARCA2^BD ternary complex (Q15369 17-112 partner limits assumed): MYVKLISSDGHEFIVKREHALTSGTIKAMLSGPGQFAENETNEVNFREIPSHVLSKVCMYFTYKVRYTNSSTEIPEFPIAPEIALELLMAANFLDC
Sequence of VCB: PROTAC: SMARCA2^BD ternary complex (Q15370 1-104 partner limits assumed): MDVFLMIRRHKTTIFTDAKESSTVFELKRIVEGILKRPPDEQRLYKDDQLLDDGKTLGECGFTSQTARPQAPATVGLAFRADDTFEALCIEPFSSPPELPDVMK
Sequence of VCB: PROTAC: SMARCA2^BD ternary complex (P51531 1373-1493 isoform P51531-2): as the sequence (P51531 1373-1493 isoform P51531-2) above
Experimental: as §1, with “software. Affinity and binding kinetic parameters were determined by global fitting using the 1:1 interaction model with a term for mass-transport included.” for “software.”

[3] = SPR, SMARCA2BD, mean ± SD, read-out: SMARCA2 KD
[4] = SPR, individual replicates, read-out: SMARCA2 KD
[5] = ternary complex with SMARCA2BD, mean ± SD

| Structure (SMILES) | Kd (SMARCA2^BD; [3]) [µM] | Kd (SMARCA2^BD; [4]) | cooperativity α (SMARCA4BD) [1] | Kd [2, 5] [µM] | Kd ([2]; ternary, individual replicates) | alpha [2] | koff (SMARCA2^BD) [s⁻¹] | kon (SMARCA2^BD) [M⁻¹ s⁻¹] | Kd (SMARCA2^BD; read-out: SMARCA2^BD SPR KD) [µM] |
| --- | --- | --- | --- | --- | --- | --- | --- | --- | --- |
| CN1CCN(c2nc(=O)c3c(Cl)cccc3o2)CC1 [compound 13] | 24.5 ± 2.17 | 26.5 µM and 24.9 µM and 22.2 µM | – | – | – | – | – | – | – |
| Cc1ncsc1-c1ccc(CNC(=O)[C@@H]2C[C@@H](O)CN2C(=O)[C@@H](NC(=O)C2(F)CC2)C(C)(C)C)c(OCCCCN2CCC(c3ccc4c(c3)n(C3CCCC3)c3nc(=O)c5c(Br)cccc5n43)CC2)c1 [compound 23] | 0.094 ± 0.011 | 0.102 µM and 0.0813 µM and 0.0983 µM | 0.9 ± 0.1 | 0.12 ± 0.008 | 116 nM (2×) and 129 nM | 0.1 | – | – | – |
| Cc1ncsc1-c1ccc(CNC(=O)[C@@H]2C[C@@H](O)CN2C(=O)[C@@H](NC(=O)C2(F)CC2)C(C)(C)C)c(OCCOCCOCCN2CCC(c3ccc4c(c3)n(C3CCCC3)c3nc(=O)c5c(Br)cccc5n43)CC2)c1 [compound 21] | 0.68 ± 0.121 | 0.65 µM and 0.814 µM and 0.577 µM | 4.0 ± 0.2 | 0.058 ± 0.008 | 0.049 µM and 0.0654 µM and 0.0583 µM | 0.4 | – | – | – |
| CN1CCC(c2ccc3c(c2)n(C2CCCC2)c2nc(=O)c4c(Br)cccc4n32)CC1 [compound 3] | 0.046 ± 0.005 | 0.0722 µM and 0.083 µM and 0.0787 µM and 0.0507 µM and 0.0446 µM and 0.0415 µM | – | – | – | – | 0.09 ± 0.01 | 1.98e+06 ± 130000 | 0.046 |
| Cc1ncsc1-c1ccc([C@H](CCC(C)(C)CCN2CCC(c3ccc4c(c3)n(C3CCCC3)c3nc(=O)c5c(Br)cccc5n43)CC2)NC(=O)[C@@H]2C[C@@H](O)CN2C(=O)[C@@H](NC(=O)C2(F)CC2)C(C)(C)C)cc1 [compound 30] | 0.325 ± 0.031 | 0.29 µM and 0.351 µM and 0.333 µM | 4.3 ± 0.5 | 0.086 ± 0.022 | 0.0661 µM and 0.109 µM and 0.0818 µM | 0.3 | – | – | – |
| Cc1ncsc1-c1ccc([C@H](CC[C@H](C)CCN2CCC(c3ccc4c(c3)n(C3CCCC3)c3nc(=O)c5c(Br)cccc5n43)CC2)NC(=O)[C@@H]2C[C@H](O)CN2C(=O)[C@@H](NC(=O)C2(F)CC2)C(C)(C)C)cc1 [compound 12] | 0.214 ± 0.015 | 0.202 µM and 0.231 µM and 0.209 µM | 0.9 ± 0.1 | – | – | – | – | – | – |
| Cc1ncsc1-c1ccc([C@H](COCCCN2CCC(c3ccc4c(c3)n(C3CCCC3)c3nc(=O)c5c(Br)cccc5n43)CC2)NC(=O)[C@@H]2C[C@@H](O)CN2C(=O)[C@@H](NC(=O)C2(F)CC2)C(C)(C)C)cc1 [compound 27] | 0.217 ± 0.03 | 0.244 µM and 0.185 µM and 0.221 µM | 2.8 ± 0.5 | 0.026 | 0.0267 µM and 0.0259 µM and 0.0264 µM | 0.5 | – | – | – |
| Cc1ncsc1-c1ccc(CNC(=O)[C@@H]2C[C@H](O)CN2C(=O)[C@@H](NC(=O)C2(F)CC2)C(C)(C)C)c(OCCN2CCC(c3ccc4c(c3)n(C3CCCC3)c3nc(=O)c5c(Br)cccc5n43)CC2)c1 [compound 19] | 0.064 ± 0.004 | 0.0688 µM and 0.0629 µM and 0.0609 µM | 0.9 ± 0.1 | – | – | – | – | – | – |
| Cc1ncsc1-c1ccc([C@H](CC[C@@H](C)CCN2CCC(c3ccc4c(c3)n(C3CCCC3)c3nc(=O)c5c(Br)cccc5n43)CC2)NC(=O)[C@@H]2C[C@@H](O)CN2C(=O)[C@@H](NC(=O)C2(F)CC2)C(C)(C)C)cc1 [compound 29] | 0.255 ± 0.042 | 0.304 µM and 0.227 µM and 0.235 µM | 7.0 ± 1.3 | 0.02 ± 0.004 | 0.0156 µM and 0.023 µM and 0.0219 µM | 0.6 | – | – | – |
| Cc1ncsc1-c1ccc([C@H](COC(C)CN2CCC(c3ccc4c(c3)n(C3CCCC3)c3nc(=O)c5c(Br)cccc5n43)CC2)NC(=O)[C@@H]2C[C@@H](O)CN2C(=O)[C@@H](NC(=O)C2(N(C)C)CC2)C(C)(C)C)cc1 (stereo partly drawn) [compound 10] | 0.222 ± 0.006 | 0.228 µM and 0.218 µM and 0.219 µM | 2.6 ± 0.8 | 0.159 ± 0.08 | 0.074 µM and 0.233 µM and 0.171 µM | 0.8 | – | – | – |
| Cc1ncsc1-c1ccc([C@H](CCCCN2CCC(c3ccc4c(c3)n(C3CCCC3)c3nc(=O)c5c(Br)cccc5n43)CC2)NC(=O)[C@@H]2C[C@@H](O)CN2C(=O)[C@@H](NC(=O)C2(F)CC2)C(C)(C)C)cc1 [compound 25] | 0.093 ± 0.003 | 0.0954 µM and 0.0904 µM and 0.094 µM | 2.3 ± 0.4 | 0.036 ± 0.015 | 0.0227 µM and 0.0516 µM and 0.0329 µM | 0.2 | – | – | – |
| Nc1cccc2c1c(=O)nc1n(C3CCCC3)c3ccccc3n21 [compound 2] | 1.16 ± 0.421 | 0.826 µM and 0.632 µM and 0.916 µM and 1.49 µM and 1.42 µM and 1.67 µM | – | – | – | – | – | – | 1.16 |
| O=c1nc2n(C3CCCC3)c3ccccc3n2c2cccc(Br)c12 [compound 1] | 1.06 ± 0.258 | 1.05 µM and 0.804 µM and 1.32 µM | – | – | – | – | – | – | – |
| CN1CCN(c2nc(=O)c3c(I)cccc3o2)CC1 [compound 16] | 17.9 ± 0.917 | 18.1 µM and 16.9 µM and 18.7 µM | – | – | – | – | – | – | – |
| Cc1ncsc1-c1ccc([C@H](CCCCCN2CCC(c3ccc4c(c3)n(C3CCCC3)c3nc(=O)c5c(Br)cccc5n43)CC2)NC(=O)[C@@H]2C[C@@H](O)CN2C(=O)[C@@H](NC(=O)C2(F)CC2)C(C)(C)C)cc1 [compound 11] | – | 0.148 µM and 0.144 µM and 0.14 µM | 4.2 ± 0.4 | 0.037 ± 0.012 | 0.0454 µM and 0.0281 µM | 0.3 | – | – | – |
| CN1CCN(c2nc(=O)c3c(Br)cccc3o2)CC1 [compound 15] | 9 ± 0.526 | 8.91 µM and 9.57 µM and 8.53 µM | – | – | – | – | – | – | – |
| Cc1ncsc1-c1ccc([C@H](COCCN2CCC(c3ccc4c(c3)n(C3CCCC3)c3nc(=O)c5c(Br)cccc5n43)CC2)NC(=O)[C@@H]2C[C@@H](O)CN2C(=O)[C@@H](NC(=O)C2(N(C)C)CC2)C(C)(C)C)cc1 [compound 26] | 0.118 ± 0.005 | 0.119 µM and 0.123 µM and 0.113 µM | 2.6 ± 0.7 | 0.095 ± 0.037 | 0.0641 µM and 0.136 µM and 0.0863 µM | 0.8 | – | – | – |
